{
  "source": "patent US20020152499A1",
  "about": "“Gene encoding a protein involved in the signal transduction cascade leading to systemic acquired resistance in plants” (priority 1996, published 2002)",
  "key": {"NIM1 gene": {"system": "NIM1 gene", "test": "RNA gel blot of NIM1 (gene region 2) mRNA after chemical treatment", "settings": "wild-type Ws plants (FIG. 7)", "text": "To ascertain which gene region contained the NIM1 gene, gel blots containing RNA isolated from leaf tissue of Ws-0 and the different nim1 mutants following either water or chemical treatment were probed with DNA derived from each of the four gene regions. In these experiments, care was taken to label probes to high specific activity and autoradiographs were exposed for more than 1 week.\nIdentical Northern blots were made from RNA samples isolated from water-, SA-, BTH- and INA-treated Ws and nim1 lines as previously described in Delaney, et al. (1995). These blots were hybridized with PCR products generated from the four gene regions identified in the 9.9 kb NIM1 gene region (SEQ ID NO:1).\nThe same RNA samples produced in the induction studies (FIG. 3) were also probed with the NIM1 gene using a full4ength cDNA clone as a probe."}, "[1]": {"system": "Peronospora parasitica isolate Emwa", "test": "Percent of plants showing P. parasitica Emwa surface conidia after chemical pretreatment", "settings": "for Percent Infection - Emwa: P. parasitica inoculated 3 days after chemical treatment", "experimental": "Mutant plants were treated with SA, INA, and BTH and then assayed for resistance to Peronospora parasitica.P. parasitica isolate ‘Emwa’ is a Pp. isolate that is compatible in the Ws ecotype.\n(§1) Wild-type seeds and seeds for each of the nim1 alleles (nim1-1,-2,-3,-4,-5,-6) were sown onto MetroMix 300 growing media, covered with a transparent plastic dome, and placed at 4° C. in the dark for 3 days. After 3 days of 4° C. treatment, the plants were moved to a phytotron for 2 weeks. By approximately 2 weeks post-planting, germinated seedlings had produced 4 true leaves. Plants were then treated with H2O, 5 mM SA, 300 μM BTH, or 300 μM INA. Chemicals were applied as a fine mist to completely cover the seedlings using a chromnister. Water control plants were returned to the growing phytotron while the chemically treated plants were held in a separate but identical phytotron. At 3 days post-chemical application, water and chemically treated plants were inoculated with the compatible ‘Emwa’ isolate. ‘Noco’ inoculation was conducted on water treated plants only. Following inoculation, plants were covered with a clear plastic dome to maintain high humidity required for successful P. parasitica infection and placed in a growing chamber with 19° C. day/17° C. night temperatures and 8 h light/16 h dark cycles.\nTo determine the relative strength of the different nim1 alleles, each mutant was microscopically analyzed at various timepoints after inoculation for the growth of P. parasitica under normal growth conditions and following pretreatment with either SA, INA, or BTH. Under magnification, sporulation of the fungus could be observed at very early stages of disease development. The percentage of plants/pot showing sporulation at 5d, 6d, 7d, 1 id and 14d after inoculation was determined and the density of sporulation was also recorded.\nP. parasitica was inoculated onto the plants three days after water or chemical treatment."}, "PR-1, PR-2 and PR-5": {"system": "PR-1, PR-2 and PR-5", "test": "Northern analysis of SAR gene expression after chemical treatment", "experimental": "Plants were then treated with H2O, 5 mM SA, 300 FM BTH, or 300 FM INA. Chemicals were applied as a fine mist to completely cover the seedlings using a chromister. Water control plants were returned to the growing phytotron while the chemically treated plants were held in a separate but identical phytotron. At 3 days post-chemical application, water and chemically treated plants were inoculated with the compatible Emwa isolate. Noco inoculation was conducted on water treated plants only. Following inoculation, plants were covered with a clear plastic dome to maintain high humidity required for successful P. parasitica infection and placed in a growing chamber with 19° C. day/17° C. night temperatures and 8 h light/16 h dark cycles. RNA was extracted from plants 3 days after either water or chemical treatment, or 14 days after inoculation with the compatible P. parasitica Emwa isolate. The RNA was size-fractionated by agarose gel electrophoresis and transferred to GeneScreenPlus membranes (DuPont).\nIn FIG. 1, replicate blots were hybridized to Arabidopsis gene probes PR-1, PR-2 and PR-5 as described in Uknes et al. (1992)."}, "[2]": {"system": "Peronospora parasitica isolate Emwa", "test": "Infection severity rating after inoculation with Peronospora parasitica (Emwa) following chemical pretreatment", "experimental": "as §1\nWsWT indicates the Ws wild type parent line in which the nim1 alleles were found. The various nim1 alleles are indicated in the table and the NahG plant is indicated also.\nNahG plants therefore serve as a kind of universal susceptibility control."}},
  "data": [
    {"smiles": "CSC(=O)c1cccc2nnsc12", "note": "[BTH]", "values": [
      {"measurement": "NIM1 (gene region 2) mRNA", "setting": "NIM1 gene", "value": "induced"},
      {"measurement": "Percent Infection - Emwa", "setting": "[1]; Ws WT plants, Day 0", "value": 0, "unit": "%"},
      {"measurement": "Percent Infection - Emwa", "setting": "[1]; Ws WT plants, Day 5", "value": 0, "unit": "%"},
      {"measurement": "Percent Infection - Emwa", "setting": "[1]; Ws WT plants, Day 6", "value": 0, "unit": "%"},
      {"measurement": "Percent Infection - Emwa", "setting": "[1]; Ws WT plants, Day 7", "value": 0, "unit": "%"},
      {"measurement": "Percent Infection - Emwa", "setting": "[1]; Ws WT plants, Day 11", "value": 0, "unit": "%"},
      {"measurement": "Percent Infection - Emwa", "setting": "[1]; nim1-1 plants, Day 0", "value": 0, "unit": "%"},
      {"measurement": "Percent Infection - Emwa", "setting": "[1]; nim1-1 plants, Day 5", "value": 1, "unit": "%"},
      {"measurement": "Percent Infection - Emwa", "setting": "[1]; nim1-1 plants, Day 6", "value": 5, "unit": "%"},
      {"measurement": "Percent Infection - Emwa", "setting": "[1]; nim1-1 plants, Day 7", "value": 30, "unit": "%"},
      {"measurement": "Percent Infection - Emwa", "setting": "[1]; nim1-1 plants, Day 11", "value": 100, "unit": "%"},
      {"measurement": "Percent Infection - Emwa", "setting": "[1]; nim1-2 plants, Day 0", "value": 0, "unit": "%"},
      {"measurement": "Percent Infection - Emwa", "setting": "[1]; nim1-2 plants, Day 5", "value": 0, "unit": "%"},
      {"measurement": "Percent Infection - Emwa", "setting": "[1]; nim1-2 plants, Day 6", "value": 25, "unit": "%"},
      {"measurement": "Percent Infection - Emwa", "setting": "[1]; nim1-2 plants, Day 7", "value": 90, "unit": "%"},
      {"measurement": "Percent Infection - Emwa", "setting": "[1]; nim1-2 plants, Day 11", "value": 100, "unit": "%"},
      {"measurement": "Percent Infection - Emwa", "setting": "[1]; nim1-3 plants, Day 0", "value": 0, "unit": "%"},
      {"measurement": "Percent Infection - Emwa", "setting": "[1]; nim1-3 plants, Day 5", "value": 15, "unit": "%"},
      {"measurement": "Percent Infection - Emwa", "setting": "[1]; nim1-3 plants, Day 6", "value": 70, "unit": "%"},
      {"measurement": "Percent Infection - Emwa", "setting": "[1]; nim1-3 plants, Day 7", "value": 100, "unit": "%"},
      {"measurement": "Percent Infection - Emwa", "setting": "[1]; nim1-3 plants, Day 11", "value": 100, "unit": "%"},
      {"measurement": "Percent Infection - Emwa", "setting": "[1]; nim1-4 plants, Day 0", "value": 0, "unit": "%"},
      {"measurement": "Percent Infection - Emwa", "setting": "[1]; nim1-4 plants, Day 5", "value": 80, "unit": "%"},
      {"measurement": "Percent Infection - Emwa", "setting": "[1]; nim1-4 plants, Day 6", "value": 100, "unit": "%"},
      {"measurement": "Percent Infection - Emwa", "setting": "[1]; nim1-4 plants, Day 7", "value": 100, "unit": "%"},
      {"measurement": "Percent Infection - Emwa", "setting": "[1]; nim1-4 plants, Day 11", "value": 100, "unit": "%"},
      {"measurement": "Percent Infection - Emwa", "setting": "[1]; nim1-5 plants, Day 0", "value": 0, "unit": "%"},
      {"measurement": "Percent Infection - Emwa", "setting": "[1]; nim1-5 plants, Day 5", "value": 0, "unit": "%"},
      {"measurement": "Percent Infection - Emwa", "setting": "[1]; nim1-5 plants, Day 6", "value": 1, "unit": "%"},
      {"measurement": "Percent Infection - Emwa", "setting": "[1]; nim1-5 plants, Day 7", "value": 1, "unit": "%"},
      {"measurement": "Percent Infection - Emwa", "setting": "[1]; nim1-5 plants, Day 11", "value": 10, "unit": "%"},
      {"measurement": "Percent Infection - Emwa", "setting": "[1]; nim1-6 plants, Day 0", "value": 0, "unit": "%"},
      {"measurement": "Percent Infection - Emwa", "setting": "[1]; nim1-6 plants, Day 5", "value": 1, "unit": "%"},
      {"measurement": "Percent Infection - Emwa", "setting": "[1]; nim1-6 plants, Day 6", "value": 90, "unit": "%"},
      {"measurement": "Percent Infection - Emwa", "setting": "[1]; nim1-6 plants, Day 7", "value": 100, "unit": "%"},
      {"measurement": "Percent Infection - Emwa", "setting": "[1]; nim1-6 plants, Day 11", "value": 100, "unit": "%"},
      {"measurement": "activity in nim1 plants", "setting": "[1]; nim1 plants", "value": "inactive"},
      {"measurement": "SAR and SAR gene expression (PR-1, PR-2, PR-5)", "setting": "PR-1, PR-2 and PR-5; nim1 plants, RNA gel blots FIGS. 1-3", "value": "induce neither SAR nor SAR gene expression"},
      {"measurement": "PR-1 mRNA accumulation", "setting": "PR-1, PR-2 and PR-5; wild-type plants, RNA 3 days after chemical treatment (FIG. 3)", "value": "accumulates to high levels"},
      {"measurement": "response of plants to the inducer (disease resistance)", "setting": "[2]; NahG plants", "value": "very good response"},
      {"measurement": "Infection Severity - Emwa", "setting": "[2]; NahG plants, Day 7 after inoculation", "value": 0},
      {"measurement": "Infection Severity - Emwa", "setting": "[2]; NahG plants, Day 11 after inoculation", "value": 0},
      {"measurement": "Infection Severity - Emwa", "setting": "[2]; Ws Wt plants, Day 7 after inoculation", "value": 0},
      {"measurement": "Infection Severity - Emwa", "setting": "[2]; Ws Wt plants, Day 11 after inoculation", "value": 0},
      {"measurement": "induced resistance to Emwa", "setting": "[2]; Ws plants", "value": "very good resistance"},
      {"measurement": "Infection Severity - Emwa", "setting": "[2]; nim1-1 plants, Day 7 after inoculation", "value": 2.5},
      {"measurement": "Infection Severity - Emwa", "setting": "[2]; nim1-1 plants, Day 11 after inoculation", "value": 4},
      {"measurement": "Infection Severity - Emwa", "setting": "[2]; nim1-2 plants, Day 7 after inoculation", "value": 3.5},
      {"measurement": "Infection Severity - Emwa", "setting": "[2]; nim1-2 plants, Day 11 after inoculation", "value": 4},
      {"measurement": "Infection Severity - Emwa", "setting": "[2]; nim1-3 plants, Day 7 after inoculation", "value": 3},
      {"measurement": "Infection Severity - Emwa", "setting": "[2]; nim1-3 plants, Day 11 after inoculation", "value": 3.5},
      {"measurement": "Infection Severity - Emwa", "setting": "[2]; nim1-4 plants, Day 7 after inoculation", "value": 4},
      {"measurement": "Infection Severity - Emwa", "setting": "[2]; nim1-4 plants, Day 11 after inoculation", "value": 5},
      {"measurement": "Infection Severity - Emwa", "setting": "[2]; nim1-5 plants, Day 7 after inoculation", "value": 1.5},
      {"measurement": "Infection Severity - Emwa", "setting": "[2]; nim1-5 plants, Day 11 after inoculation", "value": 2},
      {"measurement": "Infection Severity - Emwa", "setting": "[2]; nim1-6 plants, Day 7 after inoculation", "value": 3},
      {"measurement": "Infection Severity - Emwa", "setting": "[2]; nim1-6 plants, Day 11 after inoculation", "value": 4}
    ]}
  ]
}
